According to US12227500B2, “Substituted pyrrolo[2,3-b]pyridines for suppressing toxic endoplasmic reticulum stress” (THE TRUSTEES OF COLUMBIA UNIVERSITY IN THE CITY OF NEW YORK, priority 2018, dated 2025):

Tests used:
Test in all cases: Radiolabeled ATP kinase assay, panel of 371 kinases (Table S6)
Format in all cases: biochemical
[1] = biological target: T1, panel of 371 human kinases (Homo sapiens, UniProt P51451); details: BLK; 0.1 μM; 10 μM ATP; read-out: % Enzyme Activity (relative to DMSO controls)
T1 construct: purchased Reaction Biology Corp
Excerpt: (§1) ; FIG. 38C). […]. Further targeted analyses, such as genetic knock-down or knock-out, may be warranted to parse the role of these additional kinases in our model of neurodegeneration.

[2] = biological target: T2, panel of 371 human kinases (Homo sapiens, UniProt Q6P3R8); details: NEK5; 0.1 μM; 10 μM ATP; read-out: % Enzyme Activity (relative to DMSO controls)
T2 construct: purchased Reaction Biology Corp
Excerpt: as §1

[3] = biological target: T3, panel of 371 human kinases (Homo sapiens, UniProt P29317); details: EPHA2; 0.1 μM; 10 μM ATP; read-out: % Enzyme Activity (relative to DMSO controls)
T3 construct: purchased Reaction Biology Corp
Excerpt: as §1

[4] = biological target: T4, panel of 371 human kinases (Homo sapiens, UniProt O75676); details: MSK2/RPS6KA4; 0.1 μM; 10 μM ATP; read-out: % Enzyme Activity (relative to DMSO controls)
T4 construct: purchased Reaction Biology Corp
Excerpt: as §1

[5] = biological target: T5, panel of 371 human kinases (Homo sapiens, UniProt P08922); details: ROS/ROS1; 0.1 μM; 10 μM ATP; read-out: % Enzyme Activity (relative to DMSO controls)
T5 construct: purchased Reaction Biology Corp
Excerpt: as §1

[6] = biological target: T6, panel of 371 human kinases (Homo sapiens, UniProt Q9H3Y6); details: SRMS; 0.1 μM; 10 μM ATP; read-out: % Enzyme Activity (relative to DMSO controls)
T6 construct: purchased Reaction Biology Corp
Excerpt: as §1

[7] = biological target: T7, panel of 371 human kinases (Homo sapiens, UniProt P23443); details: p70S6K/RPS6KB1; 0.1 μM; 10 μM ATP; read-out: % Enzyme Activity (relative to DMSO controls)
T7 construct: purchased Reaction Biology Corp
Excerpt: as §1

[8] = biological target: T8, panel of 371 human kinases (Homo sapiens, UniProt Q9H4A3); details: WNK1; 0.1 μM; 10 μM ATP; read-out: % Enzyme Activity (relative to DMSO controls)
T8 construct: purchased Reaction Biology Corp
Excerpt: as §1

[9] = biological target: T9, panel of 371 human kinases (Homo sapiens, UniProt Q5VT25); details: MRCKa/CDC42BPA; 0.1 μM; 10 μM ATP; read-out: % Enzyme Activity (relative to DMSO controls)
T9 construct: purchased Reaction Biology Corp
Excerpt: as §1

[10] = biological target: T10, panel of 371 human kinases (Homo sapiens, UniProt Q9Y6M4); details: CK1g3; 0.1 μM; 10 μM ATP; read-out: % Enzyme Activity (relative to DMSO controls)
T10 construct: purchased Reaction Biology Corp
Excerpt: as §1

[11] = biological target: T11, panel of 371 human kinases (Homo sapiens, UniProt P57078); details: RIPK4; 0.1 μM; 10 μM ATP; read-out: % Enzyme Activity (relative to DMSO controls)
T11 construct: purchased Reaction Biology Corp
Excerpt: as §1

[12] = biological target: T12, panel of 371 human kinases (Homo sapiens, UniProt Q9HBH9); details: MNK2; 0.1 μM; 10 μM ATP; read-out: % Enzyme Activity (relative to DMSO controls)
T12 construct: purchased Reaction Biology Corp
Excerpt: as §1

[13] = biological target: T13, panel of 371 human kinases (Homo sapiens, UniProt Q15208); details: STK38/NDR1; 0.1 μM; 10 μM ATP; read-out: % Enzyme Activity (relative to DMSO controls)
T13 construct: purchased Reaction Biology Corp
Excerpt: as §1

[14] = biological target: T14, panel of 371 human kinases (Homo sapiens, UniProt Q6P2M8); details: CAMK1b; 0.1 μM; 10 μM ATP; read-out: % Enzyme Activity (relative to DMSO controls)
T14 construct: purchased Reaction Biology Corp
Excerpt: as §1

[15] = biological target: T15, panel of 371 human kinases (Homo sapiens, UniProt P32298); details: GRK4; 0.1 μM; 10 μM ATP; read-out: % Enzyme Activity (relative to DMSO controls)
T15 construct: purchased Reaction Biology Corp
Excerpt: as §1

[16] = biological target: T16, panel of 371 human kinases (Homo sapiens, UniProt Q05397); details: FAK/PTK2; 0.1 μM; 10 μM ATP; read-out: % Enzyme Activity (relative to DMSO controls)
T16 construct: purchased Reaction Biology Corp
Excerpt: as §1

[17] = biological target: T17, panel of 371 human kinases (Homo sapiens, UniProt Q86Y07); details: VRK2; 0.1 μM; 10 μM ATP; read-out: % Enzyme Activity (relative to DMSO controls)
T17 construct: purchased Reaction Biology Corp
Excerpt: as §1

[18] = biological target: T18, panel of 371 human kinases (Homo sapiens, UniProt Q8IW41); details: MAPKAPK5/PRAK; 0.1 μM; 10 μM ATP; read-out: % Enzyme Activity (relative to DMSO controls)
T18 construct: purchased Reaction Biology Corp
Excerpt: as §1

[19] = biological target: T19, panel of 371 human kinases (Homo sapiens, UniProt Q9UK32); details: RSK4; 0.1 μM; 10 μM ATP; read-out: % Enzyme Activity (relative to DMSO controls)
T19 construct: purchased Reaction Biology Corp
Excerpt: as §1

[20] = biological target: T20, panel of 371 human kinases (Homo sapiens, UniProt Q9Y463); details: DYRK1B; 0.1 μM; 10 μM ATP; read-out: % Enzyme Activity (relative to DMSO controls)
T20 construct: purchased Reaction Biology Corp
Excerpt: as §1

[21] = biological target: T21, panel of 371 human kinases (Homo sapiens, UniProt O00311); details: CDC7/DBF4; 0.1 μM; 10 μM ATP; read-out: % Enzyme Activity (relative to DMSO controls)
T21 construct: purchased Reaction Biology Corp
Excerpt: as §1

[22] = biological target: T22, panel of 371 human kinases (Homo sapiens, UniProt Q9NR20); details: DYRK4; 0.1 μM; 10 μM ATP; read-out: % Enzyme Activity (relative to DMSO controls)
T22 construct: purchased Reaction Biology Corp
Excerpt: as §1

[23] = biological target: T23, panel of 371 human kinases (Homo sapiens, UniProt O60285); details: ARK5/NUAK1; 0.1 μM; 10 μM ATP; read-out: % Enzyme Activity (relative to DMSO controls)
T23 construct: purchased Reaction Biology Corp
Excerpt: as §1

[24] = biological target: T24, panel of 371 human kinases (Homo sapiens, UniProt Q8IYT8); details: ULK2; 0.1 μM; 10 μM ATP; read-out: % Enzyme Activity (relative to DMSO controls)
T24 construct: purchased Reaction Biology Corp
Excerpt: as §1

T12 sequence (Q9HBH9 whole entry): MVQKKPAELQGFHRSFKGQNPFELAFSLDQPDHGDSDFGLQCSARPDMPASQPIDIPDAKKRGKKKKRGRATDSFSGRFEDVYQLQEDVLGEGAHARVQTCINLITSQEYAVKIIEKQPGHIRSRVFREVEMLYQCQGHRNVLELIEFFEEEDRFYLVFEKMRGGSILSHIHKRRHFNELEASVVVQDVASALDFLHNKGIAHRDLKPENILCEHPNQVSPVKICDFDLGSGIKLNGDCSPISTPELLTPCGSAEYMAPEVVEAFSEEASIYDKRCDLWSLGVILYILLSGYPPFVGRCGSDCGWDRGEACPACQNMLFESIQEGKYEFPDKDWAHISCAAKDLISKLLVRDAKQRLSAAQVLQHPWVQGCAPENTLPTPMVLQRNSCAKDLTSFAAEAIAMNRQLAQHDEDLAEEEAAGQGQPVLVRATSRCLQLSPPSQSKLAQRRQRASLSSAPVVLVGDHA
T4 sequence (O75676 whole entry): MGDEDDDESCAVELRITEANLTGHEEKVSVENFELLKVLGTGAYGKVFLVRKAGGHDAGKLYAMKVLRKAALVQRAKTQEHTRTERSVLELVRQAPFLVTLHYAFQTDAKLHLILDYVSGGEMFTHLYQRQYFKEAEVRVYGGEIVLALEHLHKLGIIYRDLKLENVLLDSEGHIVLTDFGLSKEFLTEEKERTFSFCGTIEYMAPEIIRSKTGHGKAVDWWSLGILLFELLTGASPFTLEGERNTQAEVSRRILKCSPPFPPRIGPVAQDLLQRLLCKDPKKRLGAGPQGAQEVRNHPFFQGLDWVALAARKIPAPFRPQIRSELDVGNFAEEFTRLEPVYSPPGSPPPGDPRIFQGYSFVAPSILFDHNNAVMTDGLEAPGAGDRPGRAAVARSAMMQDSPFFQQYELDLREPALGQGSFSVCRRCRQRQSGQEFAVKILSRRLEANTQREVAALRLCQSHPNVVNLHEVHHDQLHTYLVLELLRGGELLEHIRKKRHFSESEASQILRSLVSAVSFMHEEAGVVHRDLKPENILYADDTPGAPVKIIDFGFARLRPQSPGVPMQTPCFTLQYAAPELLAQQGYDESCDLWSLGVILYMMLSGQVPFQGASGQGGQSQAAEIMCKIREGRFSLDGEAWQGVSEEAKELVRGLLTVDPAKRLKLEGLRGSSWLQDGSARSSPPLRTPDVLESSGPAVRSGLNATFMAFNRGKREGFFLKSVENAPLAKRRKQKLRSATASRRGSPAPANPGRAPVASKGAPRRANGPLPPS
T17 sequence (Q86Y07 whole entry): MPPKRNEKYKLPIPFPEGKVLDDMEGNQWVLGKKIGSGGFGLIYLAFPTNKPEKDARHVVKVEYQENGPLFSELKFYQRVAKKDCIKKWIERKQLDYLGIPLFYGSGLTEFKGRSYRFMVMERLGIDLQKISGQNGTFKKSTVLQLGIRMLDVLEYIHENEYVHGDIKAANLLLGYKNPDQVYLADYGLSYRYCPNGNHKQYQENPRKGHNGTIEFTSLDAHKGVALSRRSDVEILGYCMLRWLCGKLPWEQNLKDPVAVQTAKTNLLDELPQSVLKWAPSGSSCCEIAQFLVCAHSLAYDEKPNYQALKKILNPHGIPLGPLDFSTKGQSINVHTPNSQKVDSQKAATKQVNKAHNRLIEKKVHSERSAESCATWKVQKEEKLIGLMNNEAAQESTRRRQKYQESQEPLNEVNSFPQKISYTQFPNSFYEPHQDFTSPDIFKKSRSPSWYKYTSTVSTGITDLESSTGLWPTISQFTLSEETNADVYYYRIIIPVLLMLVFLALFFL
T10 sequence (Q9Y6M4 whole entry): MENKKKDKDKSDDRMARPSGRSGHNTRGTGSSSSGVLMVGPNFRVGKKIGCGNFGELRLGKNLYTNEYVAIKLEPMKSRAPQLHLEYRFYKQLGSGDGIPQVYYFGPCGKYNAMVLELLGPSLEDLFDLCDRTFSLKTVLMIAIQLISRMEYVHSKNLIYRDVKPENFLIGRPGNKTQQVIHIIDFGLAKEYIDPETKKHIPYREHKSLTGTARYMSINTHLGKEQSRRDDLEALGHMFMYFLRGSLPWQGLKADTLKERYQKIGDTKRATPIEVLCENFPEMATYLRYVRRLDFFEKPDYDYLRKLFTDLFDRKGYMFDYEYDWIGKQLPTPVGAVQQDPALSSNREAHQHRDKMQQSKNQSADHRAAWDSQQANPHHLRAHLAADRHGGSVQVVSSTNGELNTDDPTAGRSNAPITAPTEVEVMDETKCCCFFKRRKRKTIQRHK
T20 sequence (Q9Y463 whole entry): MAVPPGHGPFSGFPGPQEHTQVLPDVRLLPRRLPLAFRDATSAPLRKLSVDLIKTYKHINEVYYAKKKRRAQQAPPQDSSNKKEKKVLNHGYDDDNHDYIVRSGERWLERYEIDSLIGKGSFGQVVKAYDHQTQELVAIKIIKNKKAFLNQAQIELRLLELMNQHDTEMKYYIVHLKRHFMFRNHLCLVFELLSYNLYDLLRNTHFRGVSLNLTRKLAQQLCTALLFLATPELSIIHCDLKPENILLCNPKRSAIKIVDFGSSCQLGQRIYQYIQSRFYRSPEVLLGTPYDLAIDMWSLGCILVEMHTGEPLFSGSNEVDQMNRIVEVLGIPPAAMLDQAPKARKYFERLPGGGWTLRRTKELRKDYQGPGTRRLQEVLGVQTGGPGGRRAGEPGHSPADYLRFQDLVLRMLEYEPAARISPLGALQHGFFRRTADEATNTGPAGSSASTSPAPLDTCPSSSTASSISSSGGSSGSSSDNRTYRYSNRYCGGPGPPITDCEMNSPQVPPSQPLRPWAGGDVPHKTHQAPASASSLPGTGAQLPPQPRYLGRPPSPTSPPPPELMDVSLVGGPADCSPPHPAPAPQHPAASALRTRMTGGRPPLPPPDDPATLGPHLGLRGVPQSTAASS
T13 sequence (Q15208 whole entry): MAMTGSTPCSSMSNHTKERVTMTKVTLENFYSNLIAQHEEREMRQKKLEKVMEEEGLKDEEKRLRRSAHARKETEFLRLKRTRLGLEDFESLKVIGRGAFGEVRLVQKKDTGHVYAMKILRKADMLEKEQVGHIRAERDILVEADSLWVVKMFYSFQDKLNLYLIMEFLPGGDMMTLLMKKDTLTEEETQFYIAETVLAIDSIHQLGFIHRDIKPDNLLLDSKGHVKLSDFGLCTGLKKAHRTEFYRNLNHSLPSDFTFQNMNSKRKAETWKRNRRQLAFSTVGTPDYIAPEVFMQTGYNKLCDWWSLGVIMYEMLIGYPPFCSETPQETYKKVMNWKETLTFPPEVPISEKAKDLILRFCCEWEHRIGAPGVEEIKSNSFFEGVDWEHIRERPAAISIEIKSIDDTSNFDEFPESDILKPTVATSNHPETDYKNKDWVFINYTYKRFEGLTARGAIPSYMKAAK
T6 sequence (Q9H3Y6 whole entry): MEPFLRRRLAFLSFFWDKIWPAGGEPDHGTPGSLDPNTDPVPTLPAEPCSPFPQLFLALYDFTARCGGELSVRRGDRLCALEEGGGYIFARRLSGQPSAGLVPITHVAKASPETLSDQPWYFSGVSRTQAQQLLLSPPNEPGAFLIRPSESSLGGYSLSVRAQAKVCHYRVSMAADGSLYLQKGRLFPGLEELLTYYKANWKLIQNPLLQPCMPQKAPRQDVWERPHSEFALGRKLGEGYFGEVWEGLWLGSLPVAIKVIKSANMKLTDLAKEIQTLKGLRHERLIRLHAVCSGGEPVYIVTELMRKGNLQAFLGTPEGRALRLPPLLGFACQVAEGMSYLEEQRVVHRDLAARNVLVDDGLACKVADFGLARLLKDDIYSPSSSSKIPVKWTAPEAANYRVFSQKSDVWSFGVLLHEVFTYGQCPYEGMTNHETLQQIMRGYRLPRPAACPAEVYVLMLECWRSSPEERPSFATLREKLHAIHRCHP
T23 sequence (O60285 whole entry): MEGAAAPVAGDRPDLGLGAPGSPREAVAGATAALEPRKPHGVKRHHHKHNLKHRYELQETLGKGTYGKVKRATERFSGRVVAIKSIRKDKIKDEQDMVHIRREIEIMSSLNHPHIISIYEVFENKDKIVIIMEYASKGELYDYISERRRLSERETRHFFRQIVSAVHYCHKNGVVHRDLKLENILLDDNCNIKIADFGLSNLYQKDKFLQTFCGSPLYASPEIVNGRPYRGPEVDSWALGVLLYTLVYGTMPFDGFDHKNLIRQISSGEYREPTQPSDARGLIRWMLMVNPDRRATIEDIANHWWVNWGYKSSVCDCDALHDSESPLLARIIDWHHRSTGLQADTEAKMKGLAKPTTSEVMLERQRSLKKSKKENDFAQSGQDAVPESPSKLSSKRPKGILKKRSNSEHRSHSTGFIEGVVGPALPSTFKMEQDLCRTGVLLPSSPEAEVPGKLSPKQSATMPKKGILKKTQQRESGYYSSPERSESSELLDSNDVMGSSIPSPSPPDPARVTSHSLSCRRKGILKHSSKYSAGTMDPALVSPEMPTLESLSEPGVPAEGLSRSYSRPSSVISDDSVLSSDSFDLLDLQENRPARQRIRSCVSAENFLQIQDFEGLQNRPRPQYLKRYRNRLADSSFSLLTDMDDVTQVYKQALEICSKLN
T15 sequence (P32298 whole entry): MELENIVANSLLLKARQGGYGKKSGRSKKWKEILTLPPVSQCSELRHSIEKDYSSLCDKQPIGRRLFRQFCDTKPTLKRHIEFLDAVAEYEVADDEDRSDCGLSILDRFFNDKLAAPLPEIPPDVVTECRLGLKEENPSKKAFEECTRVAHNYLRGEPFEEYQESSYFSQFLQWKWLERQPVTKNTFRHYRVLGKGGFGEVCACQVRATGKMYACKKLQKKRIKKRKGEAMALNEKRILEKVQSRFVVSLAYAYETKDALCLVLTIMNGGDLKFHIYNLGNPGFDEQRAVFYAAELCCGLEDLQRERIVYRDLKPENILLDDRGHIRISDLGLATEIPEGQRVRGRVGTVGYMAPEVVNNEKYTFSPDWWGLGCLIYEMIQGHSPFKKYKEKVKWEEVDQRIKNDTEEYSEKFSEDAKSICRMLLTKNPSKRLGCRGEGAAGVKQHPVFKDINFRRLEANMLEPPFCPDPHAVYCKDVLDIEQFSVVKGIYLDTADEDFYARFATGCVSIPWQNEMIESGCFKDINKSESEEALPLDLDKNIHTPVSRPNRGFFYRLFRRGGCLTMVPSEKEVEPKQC

Row | SMILES | remaining activity at 0.1 µM [1] [%] | remaining activity at 0.1 µM [2] [%] | remaining activity at 0.1 µM [3] [%] | remaining activity at 0.1 µM [4] [%] | remaining activity at 0.1 µM [5] [%] | remaining activity at 0.1 µM [6] [%] | remaining activity at 0.1 µM [7] [%] | remaining activity at 0.1 µM [8] [%] | remaining activity at 0.1 µM [9] [%] | remaining activity at 0.1 µM [10] [%] | remaining activity at 0.1 µM [11] [%] | remaining activity at 0.1 µM [12] [%] | remaining activity at 0.1 µM [13] [%] | remaining activity at 0.1 µM [14] [%] | remaining activity at 0.1 µM [15] [%] | remaining activity at 0.1 µM [16] [%] | remaining activity at 0.1 µM [17] [%] | remaining activity at 0.1 µM [18] [%] | remaining activity at 0.1 µM [19] [%] | remaining activity at 0.1 µM [20] [%] | also measured
1 | OCCN1CCN(Cc2ccc(-c3cnc4[nH]cc(-c5cccc(Cl)c5)c4c3)cc2)CC1 [Compound 12k, 2-(4-(4-(3-(3-Chlorophenyl)-1H-pyrrolo[2,3-b]pyridin-5-yl)benzyl)piperazin-1-yl)ethan-1-ol] | 101 | 92.4 | 92.3 | 110 | 94.2 | 103 | 99.3 | 100 | 96.1 | 92.4 | 98 | 65.2 | 71.9 | 103 | 106 | 88.5 | 98.6 | 84.4 | 41.2 | 38.3 | remaining activity at 0.1 µM [21]: 98.3%; remaining activity at 0.1 µM [22]: 101%; remaining activity at 0.1 µM [23]: 14.4%; remaining activity at 0.1 µM [24]: 36%
2 | CN1CCN(Cc2ccc(-c3cnc4[nH]cc(-c5ccc6[nH]ccc6c5)c4c3)cc2)CC1 [Compound 1, 3-(1H-Indol-5-yl)-5-(4-((4-methylpiperazin-1-yl)methyl)phenyl)-1H-pyrrolo[2,3-b]pyridine, reference compound] | 99.5 | 87.1 | 93.6 | 114 | 96 | 104 | 93.2 | 117 | 105 | 92.2 | 98.3 | 97.6 | 88.1 | 105 | 106 | 86.3 | 99.8 | 78.5 | 83.5 | 43.2 | remaining activity at 0.1 µM [21]: 100%; remaining activity at 0.1 µM [22]: 111%; remaining activity at 0.1 µM [23]: 26.9%; remaining activity at 0.1 µM [24]: 80.4%
